Laboratory results reported in publication PMC11242640 (International Journal of Molecular Sciences, 2024).
Like-named read-outs stand apart in the source and are kept apart here.

Experiments:
eeAChE = eeAChE (Electrophorus electricus, UniProt O42275); assay: eeAChE inhibition, modified Ellman's method; format: biochemical
Description: (§1) Enzymes were prepared in 20 mM Tris buffer pH 7.5 and DTNB, ATChI, and BTChI in 50 mM Tris buffer pH 8.0. Cholinesterase activity was evaluated using a 96-well microplate reader (Bio Tek 800TSUV Absorbance Reader, Agilent, Santa Clara, CA, USA) at room temperature. The microplate well was filled with 180 μL of Tris buffer (50 mM, pH 8.0), 10 μL of tested solutions (final concentrations in a range of 20–1000 μM), 10 μL of an enzyme (final concentration 0.04 U/mL), 10 μL of DTNB (final concentration 0.3 mM), and […] of ATChI/BTChI (final concentration of 0.5 mM). […] Without the use of inhibitors and enzymes, non-enzymatic hydrolysis was evaluated as a blank for the control measurement. The non-enzymatic hydrolysis reaction with an added inhibitor was used as a blank for the samples. The same volume of buffer was substituted for the enzyme. All experiments were run in triplicate. The following formula was applied to calculate the inhibition percentage: Inhibition (%) = [(AC − AT)/AC] × 100, where AC is the activity of the enzyme without a test sample and AT is the activity of the enzyme with a test sample. […] The inhibitory activity of ethanol was subtracted from all the samples. The IC50 values were obtained by a nonlinear fit of compound concentration values versus the response.

eqBChE = biological target: T1, eqBChE (Equus caballus, UniProt P81908); assay: eqBChE inhibition, modified Ellman's method; format: biochemical; conditions: for inhibition of BChE: concentration not given
T1 construct: eqBChE (from equine serum); purchased Sigma–Aldrich (St. Louis, MO, USA); host or cells: equine serum
Description: as §1

[1] = DPPH radical scavenging activity; conditions: for IC50: 30 min, 25 °C, dash = IC50 value not achieved; for DPPH Inhibition (%): at maximal concentration tested
Excerpt: DPPH is the most commonly used method to determine the antioxidant activity of different potential antioxidants. DPPH is a stable organic radical capable of accepting an electron or a hydrogen radical and changing into a non-radical form, DPPH-H [50]. The percentage of radical quenching is used as a measure of the compound antioxidant capacity.
DPPH radical scavenging activity. The stable radical 1,1-diphenyl-2-picrylhydrazyl (DPPH, Sigma–Aldrich, St. Louis, MO, USA) is the reagent used in this spectrophotometric test. The DPPH ethanolic solution (c = 8⋅10^−4 mol/L) was prepared daily and stored in a dark flask at 4 °C between the measurements. […] The reaction mixture was vortexed and incubated in the dark for 30 min at 25 °C. […] Antioxidant substances reduce the DPPH radical and decrease its absorbance at this wavelength. The DPPH inhibition, reported as a percentage, was obtained according to the equation: Inhibition (%) = [(AC(0) − AA(t))/AC(0)] × 100, where AC(0) is the absorbance of the control at t = 0 min and AA(t) is the absorbance of the antioxidant at t = 30 min. Each of the measurements was conducted three times. Inhibition percentages were expressed as mean values ± standard deviation. IC50 values were calculated using a nonlinear fit of compound concentration values versus the inhibition percentage.

[2] = CUPRAC reducing antioxidant capacity assay; conditions: Trolox equivalent, pH 7.0
Excerpt: The CUPRAC test is based on the reduction of Cu^2+ to Cu^+ due to the action of antioxidants. A reaction occurs at a pH 7.0 (close to physiological pH) in the presence of neocuproin. The reactive Ar-OH groups of polyphenols and other antioxidants are oxidized to the corresponding quinones, and Cu^2+-neocuproin is reduced to the colored complex Cu^+-neocuproin [51].
CUPRAC-reducing-antioxidant-capacity assay. […] Ammonium acetate, neocuproine, copper(II) chloride, and standard Trolox were purchased from Sigma–Aldrich (St. Louis, MO, USA). The reaction mixture contained 1 mL of each of these solutions: NH4Ac buffer (1 M, pH 7.0), Cu(II) chloride (10 mM), and neocuproine (7.5 mM, dissolved in ethanol). To make a final volume of 4.1 mL, x mL of the testing sample (or standard Trolox) and (1,1-x) mL of H2O were added to an initial mixture. The tubes were vortexed and left for 30 min at room temperature. As a blank test, the same mixture was used only without the test sample. Absorbance was recorded at 450 nm (UV-1800 UV/Vis spectrophotometer, Shimadzu, Kyoto, Japan).

[3] = read-out: eeAChE Inhibition (%)
[4] = read-out: eqBChE Inhibition (%)

eeAChE, sequence (O42275 24-633): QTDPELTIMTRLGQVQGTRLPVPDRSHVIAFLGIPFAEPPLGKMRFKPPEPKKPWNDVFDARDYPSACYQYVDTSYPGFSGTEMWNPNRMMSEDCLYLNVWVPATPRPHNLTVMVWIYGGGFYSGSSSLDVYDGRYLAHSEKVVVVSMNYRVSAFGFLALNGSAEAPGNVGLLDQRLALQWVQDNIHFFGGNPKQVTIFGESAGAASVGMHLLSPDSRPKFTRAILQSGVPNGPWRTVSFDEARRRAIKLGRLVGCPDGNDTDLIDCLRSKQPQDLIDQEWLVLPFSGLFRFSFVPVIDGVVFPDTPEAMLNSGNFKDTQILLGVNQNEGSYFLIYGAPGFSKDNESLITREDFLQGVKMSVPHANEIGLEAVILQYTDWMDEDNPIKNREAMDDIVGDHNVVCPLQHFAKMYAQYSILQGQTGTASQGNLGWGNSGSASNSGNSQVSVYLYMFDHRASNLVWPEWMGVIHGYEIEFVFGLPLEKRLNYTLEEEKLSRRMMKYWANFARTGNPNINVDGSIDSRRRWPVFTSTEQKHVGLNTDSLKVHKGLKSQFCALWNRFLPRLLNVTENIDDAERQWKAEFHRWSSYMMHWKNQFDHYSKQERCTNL
T1 sequence (P81908 whole entry): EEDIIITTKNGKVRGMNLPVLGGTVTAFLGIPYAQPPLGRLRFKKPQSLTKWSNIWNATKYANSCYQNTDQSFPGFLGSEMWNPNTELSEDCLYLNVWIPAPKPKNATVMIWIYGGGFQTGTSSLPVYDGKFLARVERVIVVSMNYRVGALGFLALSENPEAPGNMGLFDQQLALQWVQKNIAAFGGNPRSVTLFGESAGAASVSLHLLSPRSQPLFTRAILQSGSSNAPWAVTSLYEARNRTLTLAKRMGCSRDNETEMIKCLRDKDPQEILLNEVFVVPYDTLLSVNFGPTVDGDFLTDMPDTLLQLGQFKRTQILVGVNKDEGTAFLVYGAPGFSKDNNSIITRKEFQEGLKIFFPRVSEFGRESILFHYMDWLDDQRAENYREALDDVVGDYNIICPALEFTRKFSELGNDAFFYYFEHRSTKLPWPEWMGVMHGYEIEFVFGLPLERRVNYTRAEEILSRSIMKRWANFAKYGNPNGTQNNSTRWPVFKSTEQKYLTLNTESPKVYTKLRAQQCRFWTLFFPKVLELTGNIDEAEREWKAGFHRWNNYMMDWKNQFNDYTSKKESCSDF

Compound | IC50 (eeAChE; dash = IC50 value not achieved) | inhibition at 500 µM (eeAChE; [3]) | IC50 (eqBChE; dash = IC50 value not achieved) | IC50 [1] | DPPH Inhibition (%) ([1]; 500 μM) | CUPRAC [2] | inhibition at 500 µM (eqBChE; [4]) | also measured
Oc1ccc(F)cc1/C=C/c1cccs1 [Compound 1, (E)-4-fluoro-2-(2-(thiophen-2-yl)vinyl)phenol] | 178 µM | 80.9 ± 1.9% | 66 µM | 159 µM | 77.2 ± 0.5 (500) % | 0.925 mol TE/mol of Compound |  | inhibition at 400 µM (eqBChE; [4]): 83.5 ± 0.8%
Oc1ccc(Cl)cc1/C=C/c1cccs1 [Compound 2, (E)-4-chloro-2-(2-(thiophen-2-yl)vinyl)phenol] | 82.3 µM |  | 53 µM | 265 µM | 65.0 ± 2.4 (500) % | 0.713 mol TE/mol of Compound |  | inhibition at 250 µM (eeAChE; [3]): 83 ± 2.5%; inhibition at 200 µM (eqBChE; [4]): 80.4 ± 6.4%
COc1ccc(O)c(/C=C/c2cccs2)c1 [Compound 3, (E)-4-methoxy-2-(2-(thiophen-2-yl)vinyl)phenol] | 405 µM | 77.8 ± 5.2% | 206 µM | 36.2 µM | 87.7 ± 0.8 (500) % | 1.111 mol TE/mol of Compound | 68.5 ± 6.2% | 
Cc1ccc(O)c(/C=C/c2cccs2)c1 [Compound 4, (E)-4-methyl-2-(2-(thiophen-2-yl)vinyl)phenol] | 225 µM |  | 36.5 µM | 51.4 µM |  | 0.852 mol TE/mol of Compound |  | inhibition at 250 µM (eeAChE; [3]): 82.1 ± 1.1%; inhibition at 250 µM (eqBChE; [4]): 81.1 ± 2.2%; DPPH Inhibition (%) ([1]; 400 μM): 90.3 ± 0.6 (400) %
Cc1ccc(/C=C/c2cc(F)ccc2O)s1 [Compound 5, (E)-4-fluoro-2-(2-(5-methylthiophen-2-yl)vinyl)phenol] | 155 µM |  | 22.9 µM | 130 µM |  | 0.204 mol TE/mol of Compound |  | inhibition at 250 µM (eeAChE; [3]): 84.6 ± 2.7%; inhibition at 100 µM (eqBChE; [4]): 75.3 ± 2.3%; DPPH Inhibition (%) ([1]; 400 μM): 83.0 ± 1.9 (400) %
Cc1ccc(/C=C/c2cc(Cl)ccc2O)s1 [Compound 6, (E)-4-chloro-2-(2-(5-methylthiophen-2-yl)vinyl)phenol] |  |  |  | > 250 µM |  | 1.407 mol TE/mol of Compound |  | IC50 (eeAChE): 27.1 µM; inhibition at 80 µM (eeAChE; [3]): 82.4 ± 0.8%; IC50 (eqBChE): 39.7 µM; inhibition at 100 µM (eqBChE; [4]): 84 ± 1.8%; DPPH Inhibition (%) ([1]; 400 μM): 42.9 ± 2.7 (400) %
COc1ccc(O)c(/C=C/c2ccc(C)s2)c1 [Compound 7, (E)-4-methoxy-2-(2-(5-methylthiophen-2-yl)vinyl)phenol] |  |  |  | 23.8 µM |  | 2.350 mol TE/mol of Compound |  | IC50 (eeAChE): 62.9 µM; inhibition at 200 µM (eeAChE; [3]): 81.1 ± 1.1%; IC50 (eqBChE): 42.5 µM; inhibition at 200 µM (eqBChE; [4]): 83.1 ± 0.8%; DPPH Inhibition (%) ([1]; 50 μM): 86.2 ± 2.3 (50) %
Cc1ccc(O)c(/C=C/c2ccc(C)s2)c1 [Compound 8, (E)-4-methyl-2-(2-(5-methylthiophen-2-yl)vinyl)phenol] |  |  |  | 26.3 µM |  | 1.148 mol TE/mol of Compound |  | IC50 (eeAChE): 92.4 µM; inhibition at 150 µM (eeAChE; [3]): 78.2 ± 7.7%; IC50 (eqBChE): 24.8 µM; inhibition at 250 µM (eqBChE; [4]): 88.5 ± 5%; DPPH Inhibition (%) ([1]; 250 μM): 89.3 ± 1.2 (250) %
Cc1cnc(/C=C\c2cc(F)ccc2O)s1 [Compound 9, (Z)-4-fluoro-2-(2-(5-methylthiazol-2-yl)vinyl)phenol] | > 100 µM |  | > 250 µM | 428 µM | 55.4 ± 0.7 (500) % | 1.000 mol TE/mol of Compound |  | inhibition at 100 µM (eeAChE; [3]): 17.6 ± 3.1%; inhibition at 250 µM (eqBChE; [4]): 10.5 ± 4.1%
Cc1cnc(/C=C\c2cc(Cl)ccc2O)s1 [Compound 10, (Z)-4-chloro-2-(2-(5-methylthiazol-2-yl)vinyl)phenol] | > 100 µM | 34.2 ± 2.1% | > 250 µM | > 250 µM | 24.0 ± 0.7 (500) % | 0.630 mol TE/mol of Compound | 22.4 ± 9% | 
COc1ccc(/C=C/c2ncc(C)s2)c(O)c1 [Compound 11, (E)-5-methoxy-2-(2-(5-methylthiazol-2-yl)vinyl)phenol] | > 100 µM | 29.3 ± 1.8% | > 250 µM | 30.1 µM |  |  | 9.8 ± 2.7% | inhibition of BChE (eqBChE): < 50%; DPPH Inhibition (%) ([1]; 524 μM): 89.8 ± 0.0 (524) %
Cc1cnc(/C=C/c2ccc(O)cc2)s1 [Compound 12, (E)-4-(2-(5-methylthiazol-2-yl)vinyl)phenol] | > 100 µM | 9.1 ± 1.4% | 189 µM | 140 µM |  |  | 68.4 ± 1.3% | DPPH Inhibition (%) ([1]; 524 μM): 74.1 ± 0.4 (524) %
Cc1cnc(/C=C/c2ccccc2O)s1 [Compound 13, (E)-2-(2-(5-methylthiazol-2-yl)vinyl)phenol] | > 100 µM | 17.1 ± 3.9% | 30.7 µM | 699 µM |  |  | 78.2 ± 3.8% | DPPH Inhibition (%) ([1]; 1047 μM): 59.8 ± 2.3 (1047) %
Cc1cnc(/C=C/c2cccc(O)c2)s1 [Compound 14, (E)-3-(2-(5-methylthiazol-2-yl)vinyl)phenol] | > 100 µM |  | > 250 µM | > 250 µM |  |  |  | inhibition at 250 µM (eeAChE; [3]): 10.7 ± 2.4%; inhibition of BChE (eqBChE): < 50%; inhibition at 250 µM (eqBChE; [4]): 15.6 ± 3.6%; DPPH Inhibition (%) ([1]; 250 μM): 11.2 ± 2.7 (250) %
